Measurements: ChEMBL document CHEMBL4265985, “Discovery of a potent, low-absorbable sodium-dependent glucose cotransporter 1 (SGLT1) inhibitor (TP0438836) for the treatment of type 2 diabetes” (Bioorg Med Chem Lett, 2018)
Activity calls are given as the source filed them. The rule behind the calls is not given here.

Legend:
[1] = Permeability of the compound at 50 uM after 24 hrs at pH 7.4 by PAMPA; assay type: ADME; details: read-out: permeability
[2] = Volume of distribution at steady state in Sprague-Dawley rat at 2 mg/kg, iv administered as single dose by LC-MS analysis; assay type: ADME, organism-based; details: in vivo, read-out: Vdss
Rattus norvegicus [3] = experiment: Hypoglycemic effect in Sprague-Dawley rat assessed as reduction in blood glucose AUC (0 to 2 hrs) at 0.1 mg/kg, po pretreated followed by glucose challenge by OGTT relative to control; assay type: functional; parameters: scale not given: the % may be the effect or the level left
[4] = molecular target: T1, Sodium/glucose cotransporter 2 (Homo sapiens, UniProt P31639); experiment: Inhibition of human SGLT2 expressed in CHOK1 cells assessed as reduction in Na-dependent [14C]-methyl-alpha-D-glucopyranoside uptake after 1 hr by microbeta counting method; assay type: cell-based
T1 sequence (P31639 whole entry): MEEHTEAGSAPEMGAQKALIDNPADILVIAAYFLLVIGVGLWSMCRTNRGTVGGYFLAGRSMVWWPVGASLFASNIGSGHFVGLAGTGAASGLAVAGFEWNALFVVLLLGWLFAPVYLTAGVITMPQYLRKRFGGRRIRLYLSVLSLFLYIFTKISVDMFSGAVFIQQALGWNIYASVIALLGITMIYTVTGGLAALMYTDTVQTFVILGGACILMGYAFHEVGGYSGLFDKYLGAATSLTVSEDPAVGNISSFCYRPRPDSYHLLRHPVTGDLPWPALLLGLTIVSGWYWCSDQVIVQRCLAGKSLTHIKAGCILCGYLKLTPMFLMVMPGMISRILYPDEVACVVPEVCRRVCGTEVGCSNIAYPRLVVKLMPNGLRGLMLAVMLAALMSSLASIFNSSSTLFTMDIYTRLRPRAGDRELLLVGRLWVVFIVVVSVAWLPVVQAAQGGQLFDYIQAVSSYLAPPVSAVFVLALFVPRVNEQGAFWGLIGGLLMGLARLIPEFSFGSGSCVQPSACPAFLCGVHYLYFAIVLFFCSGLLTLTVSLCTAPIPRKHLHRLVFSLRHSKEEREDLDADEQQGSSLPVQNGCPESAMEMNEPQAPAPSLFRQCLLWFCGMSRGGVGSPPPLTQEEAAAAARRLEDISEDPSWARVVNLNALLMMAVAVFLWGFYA

Rattus norvegicus [5] = experiment: Hypoglycemic effect in Sprague-Dawley rat assessed as reduction in blood glucose AUC (0 to 2 hrs) at 1 mg/kg, po pretreated followed by glucose challenge by OGTT relative to control; assay type: functional; parameters: scale not given: the % may be the effect or the level left
Rattus norvegicus [6] = experiment: In vivo inhibition of SGLT2 Sprague-Dawley rat assessed as increase in urinary glucose excretion at 0.1 to 0.3 mg/kg, po bid for 4 days followed by glucose challenge on day 5; assay type: functional, organism-based
Rattus norvegicus [7] = experiment: Hypoglycemic effect in Sprague-Dawley rat assessed as reduction in blood glucose AUC (0 to 2 hrs) at 0.3 mg/kg, po pretreated followed by glucose challenge by OGTT relative to control; assay type: functional; parameters: scale not given: the % may be the effect or the level left
[8] = Total clearance in Sprague-Dawley rat at 2 mg/kg, iv administered as single dose by LC-MS analysis; assay type: ADME, organism-based; details: in vivo
[9] = molecular target: T2, Sodium/glucose cotransporter 1 (Homo sapiens, UniProt P13866); experiment: Inhibition of human SGLT1 expressed in CHOK1 cells assessed as reduction in Na-dependent [14C]-methyl-alpha-D-glucopyranoside uptake after 30 mins by microbeta counting method; assay type: cell-based
T2 sequence (P13866 whole entry): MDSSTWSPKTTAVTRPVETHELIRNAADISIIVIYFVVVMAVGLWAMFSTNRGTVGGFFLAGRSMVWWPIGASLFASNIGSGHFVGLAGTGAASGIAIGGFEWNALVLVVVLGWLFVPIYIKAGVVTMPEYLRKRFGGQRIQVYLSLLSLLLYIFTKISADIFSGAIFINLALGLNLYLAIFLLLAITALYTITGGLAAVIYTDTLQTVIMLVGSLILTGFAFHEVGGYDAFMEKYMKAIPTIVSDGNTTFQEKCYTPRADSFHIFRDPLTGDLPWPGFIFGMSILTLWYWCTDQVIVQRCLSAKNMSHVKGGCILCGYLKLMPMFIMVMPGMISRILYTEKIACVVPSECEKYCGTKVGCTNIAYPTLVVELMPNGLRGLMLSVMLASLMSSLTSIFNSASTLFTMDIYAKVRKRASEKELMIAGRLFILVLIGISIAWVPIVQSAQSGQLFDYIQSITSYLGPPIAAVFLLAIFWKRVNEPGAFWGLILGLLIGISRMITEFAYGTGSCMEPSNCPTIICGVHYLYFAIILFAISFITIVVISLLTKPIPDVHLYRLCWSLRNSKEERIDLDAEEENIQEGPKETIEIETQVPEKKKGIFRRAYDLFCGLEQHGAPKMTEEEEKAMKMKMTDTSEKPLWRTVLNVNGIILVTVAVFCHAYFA

Rattus norvegicus [10] = experiment: Hypoglycemic effect in Sprague-Dawley rat assessed as reduction in blood glucose AUC (0 to 2 hrs) pretreated orally followed by glucose challenge by OGTT; assay type: functional, organism-based
[11] = Oral bioavailability in Sprague-Dawley rat at 1 mg/kg administered as single dose by LC-MS analysis; assay type: ADME, organism-based; details: in vivo
[12] = Tmax in Sprague-Dawley rat at 1 mg/kg, po administered as single dose by LC-MS analysis; assay type: ADME, organism-based; details: in vivo
[13] = Cmax in Sprague-Dawley rat at 1 mg/kg, po administered as single dose by LC-MS analysis; assay type: ADME, organism-based; parameters: dose 1 mg/kg, route oral; details: in vivo
[14] = Terminal half life in Sprague-Dawley rat at 2 mg/kg, iv administered as single dose by LC-MS analysis; assay type: ADME, organism-based; details: in vivo, read-out: beta t1/2 (converted)

IC50 [4] [nM]	IC50 [9] [nM]	Structure (SMILES)	also measured
7	28	Cc1cc(O)c([C@@H]2O[C@H](CO)[C@@H](O)[C@H](O)[C@H]2O)cc1Cc1ccc(CCNC(=O)NC(CO)(CO)CO)cc1	Papp at 24 h, 50 µM [1]: 0.3 ×10⁻⁶ cm/s; Vd [2]: 0.439 L/kg; Activity (Rattus norvegicus [3]): 31.5%; Activity (Rattus norvegicus [5]): 62.2%; inhibition (Rattus norvegicus [6]): inactive; Activity (Rattus norvegicus [7]): 58.5%; clearance [8]: 18 mL/min/kg; Activity (Rattus norvegicus [10]): Dose-dependent effect; bioavailability [11]: 0.05%; Tmax [12]: 15 min; Cmax [13]: 1.46 ng/mL; half-life [14]: 21.7 min
5	22	Cc1cc(O)c([C@@H]2S[C@H](CO)[C@@H](O)[C@H](O)[C@H]2O)cc1Cc1ccc(CCCC(=O)NC(C)(CO)CO)cc1	
5		Cc1cc(O)c([C@@H]2O[C@H](CO)[C@@H](O)[C@H](O)[C@H]2O)cc1Cc1ccc(CCCNC(=O)NC(C)(C)CO)cc1	
4	47	Cc1cc(O)c([C@@H]2S[C@H](CO)[C@@H](O)[C@H](O)[C@H]2O)cc1Cc1ccc(CCCC(=O)NC(C)(C)C(N)=O)cc1	
	65	COc1ccc(Cc2cc([C@@H]3S[C@H](CO)[C@@H](O)[C@H](O)[C@H]3O)c(O)cc2C)cc1	
7		Cc1cc(O)c([C@@H]2O[C@H](CO)[C@@H](O)[C@H](O)[C@H]2O)cc1Cc1ccc(CCCNC(=O)NC(CO)(CO)CO)cc1	

Continued, compound first:

Structure (SMILES)	IC50 [4] [nM]	IC50 [9] [nM]	also measured
Cc1cc(O)c([C@@H]2O[C@H](CO)[C@@H](O)[C@H](O)[C@H]2O)cc1Cc1ccc(CCCC(=O)NC(CO)(CO)CO)cc1		35	
Cc1cc(O)c([C@@H]2O[C@H](CO)[C@@H](O)[C@H](O)[C@H]2O)cc1Cc1ccc(CCCNC(=O)N2CCN(C)CC2)cc1	5	764	
CCOc1ccc(Cc2cc([C@@H]3S[C@H](CO)[C@@H](O)[C@H](O)[C@H]3O)c(O)cc2C)cc1	3	162	
Cc1cc(O)c([C@@H]2O[C@H](CO)[C@@H](O)[C@H](O)[C@H]2O)cc1Cc1ccc(CCCC(=O)NC(C)(C)C(N)=O)cc1	7	51	
Cc1ccc(Cc2cc([C@@H]3S[C@H](CO)[C@@H](O)[C@H](O)[C@H]3O)c(O)cc2C)cc1	2	25	
Cc1cc(O)c([C@@H]2O[C@H](CO)[C@@H](O)[C@H](O)[C@H]2O)cc1Cc1ccc(CCCC(=O)NC(C)(CO)CO)cc1		32	
CCc1ccc(Cc2cc([C@@H]3S[C@H](CO)[C@@H](O)[C@H](O)[C@H]3O)c(O)cc2C)cc1	2		
Cc1cc(O)c([C@@H]2S[C@H](CO)[C@@H](O)[C@H](O)[C@H]2O)cc1Cc1ccc(CCCC(=O)NC(CO)(CO)CO)cc1	9	35	
Cc1cc(O)c([C@@H]2O[C@H](CO)[C@@H](O)[C@H](O)[C@H]2O)cc1Cc1ccc(CCNC(=O)NC(C)(C)CO)cc1	4		
Cc1cc(O)c([C@@H]2S[C@H](CO)[C@@H](O)[C@H](O)[C@H]2O)cc1Cc1ccc(OC(C)C)cc1	3	414	
